Results as given in PubChem BioAssay (NCI).
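Step 1: Grow cells in 96-well plates. Step 2: Expose to compound for 48 hours at 5 concentrations. Step 3: Interpolate endpoints linearly; if unreached, use highest concentration. GI50 is the concentration that inhibits growth by half. TGI: concentration producing complete growth inhibition.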

How the values were obtained:
Experiment in all cases: growth of human tumour cells (NCI), 48 h
A498 renal = tested on: A498 renal
A549 NSCLC = tested on: A549 NSCLC
BT-549 breast = tested on: BT-549 breast
CAKI-1 renal = tested on: CAKI-1 renal
CCRF-CEM leukemia = tested on: CCRF-CEM leukemia
COLO 205 colon = tested on: COLO 205 colon
DU-145 prostate = tested on: DU-145 prostate
HCC-2998 colon = tested on: HCC-2998 colon
HCT-15 colon = tested on: HCT-15 colon
HL-60(TB) leukemia = tested on: HL-60(TB) leukemia
HOP-62 NSCLC = tested on: HOP-62 NSCLC
HS 578T breast = tested on: HS 578T breast
HT29 colon = tested on: HT29 colon
K-562 leukemia = tested on: K-562 leukemia
KM12 colon = tested on: KM12 colon
MCF7 breast = tested on: MCF7 breast
MDA-MB-231 breast = tested on: MDA-MB-231 breast
MDA-MB-435 = tested on: MDA-MB-435
MOLT-4 leukemia = tested on: MOLT-4 leukemia
NCI-H226 lung = tested on: NCI-H226 lung
NCI-H23 lung = tested on: NCI-H23 lung
NCI-H460 lung = tested on: NCI-H460 lung
NCI-H522 lung = tested on: NCI-H522 lung
OVCAR-3 ovarian = tested on: OVCAR-3 ovarian
OVCAR-4 ovarian = tested on: OVCAR-4 ovarian
OVCAR-5 ovarian = tested on: OVCAR-5 ovarian
PC-3 prostate = tested on: PC-3 prostate
RPMI-8226 leukemia = tested on: RPMI-8226 leukemia
SF-268 CNS = tested on: SF-268 CNS
SK-MEL-28 melanoma = tested on: SK-MEL-28 melanoma
SK-MEL-5 melanoma = tested on: SK-MEL-5 melanoma
SK-OV-3 ovarian = tested on: SK-OV-3 ovarian
SN12C renal = tested on: SN12C renal
SNB-75 CNS = tested on: SNB-75 CNS
SR leukemia = tested on: SR leukemia
SW-620 colon = tested on: SW-620 colon
T-47D breast = tested on: T-47D breast
TK-10 renal = tested on: TK-10 renal
U251 CNS = tested on: U251 CNS
UACC-257 melanoma = tested on: UACC-257 melanoma
UACC-62 melanoma = tested on: UACC-62 melanoma
UO-31 renal = tested on: UO-31 renal

COc1cc2nc(N3CCC[C@@H](NC4=CC(=O)c5ccccc5C4=O)C3)nc(N)c2cc1OC
GI50 (A498 renal): 18.5 µM
TGI (A498 renal): 40.9 µM
GI50 (A549 NSCLC): 1.97 µM
TGI (A549 NSCLC): 3.8 µM
GI50 (BT-549 breast): 2.1 µM
TGI (BT-549 breast): 4.66 µM
GI50 (CAKI-1 renal): 2.02 µM
TGI (CAKI-1 renal): 4.12 µM
GI50 (CCRF-CEM leukemia): 1.96 µM
TGI (CCRF-CEM leukemia): 4.56 µM
GI50 (COLO 205 colon): 1.93 µM
TGI (COLO 205 colon): 3.55 µM
GI50 (DU-145 prostate): 2.03 µM
TGI (DU-145 prostate): 3.78 µM
GI50 (HCC-2998 colon): 1.85 µM
TGI (HCC-2998 colon): 3.3 µM
GI50 (HCT-15 colon): 2.31 µM
TGI (HCT-15 colon): 6.02 µM
GI50 (HL-60(TB) leukemia): 1.96 µM
TGI (HL-60(TB) leukemia): 4.05 µM
GI50 (HOP-62 NSCLC): 2.16 µM
TGI (HOP-62 NSCLC): 4.26 µM
GI50 (HS 578T breast): 2.14 µM
TGI (HS 578T breast): 4.95 µM
GI50 (HT29 colon): 1.88 µM
TGI (HT29 colon): 3.82 µM
GI50 (K-562 leukemia): 0.427 µM
TGI (K-562 leukemia): 2.36 µM
GI50 (KM12 colon): 1.81 µM
TGI (KM12 colon): 3.33 µM
GI50 (MCF7 breast): 1.71 µM
TGI (MCF7 breast): 3.39 µM
GI50 (MDA-MB-231 breast): 1.69 µM
TGI (MDA-MB-231 breast): 3.26 µM
GI50 (MDA-MB-435): 2 µM
TGI (MDA-MB-435): 4.14 µM
GI50 (MOLT-4 leukemia): 2.34 µM
TGI (MOLT-4 leukemia): 5.55 µM
GI50 (NCI-H226 lung): 21.9 µM
TGI (NCI-H226 lung): 52.7 µM
GI50 (NCI-H23 lung): 1.99 µM
TGI (NCI-H23 lung): 4.3 µM
GI50 (NCI-H460 lung): 2.1 µM
TGI (NCI-H460 lung): 4.36 µM
GI50 (NCI-H522 lung): 1.98 µM
TGI (NCI-H522 lung): 4.31 µM
GI50 (OVCAR-3 ovarian): 2.03 µM
TGI (OVCAR-3 ovarian): 3.81 µM
GI50 (OVCAR-4 ovarian): 1.64 µM
TGI (OVCAR-4 ovarian): 3.35 µM
GI50 (OVCAR-5 ovarian): 2.26 µM
TGI (OVCAR-5 ovarian): 4.85 µM
GI50 (PC-3 prostate): 1.91 µM
TGI (PC-3 prostate): 4.16 µM
GI50 (RPMI-8226 leukemia): 2.33 µM
TGI (RPMI-8226 leukemia): 5.58 µM
GI50 (SF-268 CNS): 1.92 µM
TGI (SF-268 CNS): 3.81 µM
GI50 (SK-MEL-28 melanoma): 1.72 µM
TGI (SK-MEL-28 melanoma): 3.39 µM
GI50 (SK-MEL-5 melanoma): 1.77 µM
TGI (SK-MEL-5 melanoma): 3.44 µM
GI50 (SK-OV-3 ovarian): 2.03 µM
TGI (SK-OV-3 ovarian): 4.08 µM
GI50 (SN12C renal): 1.73 µM
TGI (SN12C renal): 3.44 µM
GI50 (SNB-75 CNS): 1.64 µM
TGI (SNB-75 CNS): 3.25 µM
GI50 (SR leukemia): 0.266 µM
TGI (SR leukemia): 0.892 µM
GI50 (SW-620 colon): 1.59 µM
TGI (SW-620 colon): 3.36 µM
GI50 (T-47D breast): 1.95 µM
TGI (T-47D breast): 3.74 µM
GI50 (TK-10 renal): 2.1 µM
TGI (TK-10 renal): 3.85 µM
GI50 (U251 CNS): 1.86 µM
TGI (U251 CNS): 3.46 µM
GI50 (UACC-257 melanoma): 16.6 µM
TGI (UACC-257 melanoma): 38 µM
GI50 (UACC-62 melanoma): 2.01 µM
TGI (UACC-62 melanoma): 4.25 µM
GI50 (UO-31 renal): 1.62 µM
TGI (UO-31 renal): 3.25 µM
